Consider 15 compounds from US20070010671A1, “Novel quinazoline derivatives and methods of treatment related to the use thereof” (priority 2003, published 2007).

SMILES strings stand for the structures.

The first assay concerns the target MCH receptor (Homo sapiens, UniProt Q99705). The assay is described as follows: High throughput functional screening FLIPR/FDSS6000: inhibition of MCH-evoked intracellular Ca2+ changes. Format: cell-based. As to conditions: class by percent of control at 10^-7 M or IC50. Put shortly: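 Antagonism is measured as inhibition of the intracellular calcium rise triggered by 50 nM MCH in cells bearing a constitutively active, non-endogenous form of the receptor. Cells are dye-loaded with Fluo4-AM and exposed to compound for 3 min at 37° C before agonist addition.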
For `CN(C)c1nc(N[C@H]2CC[C@@H](NC(=S)Nc3ccc(Br)cc3Cl)CC2)nc2ccccc12` [compound 233], the class is 1 (Class 1: The value of percent of control at 10^−7 M was less than 40% or the value of IC50 was less than 50 nM.).

On to `Cc1cc(Br)cc(C)c1NC(=O)NC[C@H]1CC[C@@H](Nc2nc(N(C)C)c3ccccc3n2)CC1` [compound 753, N-(4-bromo-2,6-dimethylphenyl)-N′-[(cis-4-{[4-(dimethylamino)quinazolin-2-yl]amino}cyclohexyl)methyl]urea], for which the class is 1 (Class 1: The value of percent of control at 10^−7 M was less than 40% or the value of IC50 was less than 50 nM.).

On to `CN(C)c1nc(N[C@H]2CC[C@@H](CNC(=S)Nc3ccccc3I)CC2)nc2ccccc12` [compound 643], for which the class was 3 (Class 3: The value of percent of control at 10^−7 M was more than 60% or the value of IC50 was more than 200 nM.).

On to `CN(C)c1nc(N[C@H]2CC[C@@H](CNC(=O)Nc3ccccc3C(C)(C)C)CC2)nc2ccccc12` [compound 516, N-(2-tert-butylphenyl)-N′-[(cis-4-{[4-(dimethylamino)quinazolin-2-yl]amino}cyclohexyl)methyl]urea], for which the class is 1 (Class 1: The value of percent of control at 10^−7 M was less than 40% or the value of IC50 was less than 50 nM.).

Consider `CN(C)c1nc(N[C@H]2CC[C@@H](NC(=O)Nc3ccc4c(c3)C(F)(F)OC(F)(F)O4)CC2)nc2ccccc12` [compound 335], for which the class is given as 3 (Class 3: The value of percent of control at 10^−7 M was more than 60% or the value of IC50 was more than 200 nM.).

Turning to `CN(C)c1nc(N[C@H]2CC[C@@H](CNC(=O)Nc3cc(Cl)ccc3[N+](=O)[O-])CC2)nc2ccccc12` [compound 566], the class is reported as 3 (Class 3: The value of percent of control at 10^−7 M was more than 60% or the value of IC50 was more than 200 nM.).

The assay is the same for the next values; noted with them: class by percent of control at 10^-7 M or by IC50; read-out: class.
Take `Cc1cc(NC(=O)N[C@H]2CC[C@@H](Nc3nc(N(C)C)c4ccccc4n3)CC2)c([N+](=O)[O-])cc1C` [compound 138]: the IC50 was more than 200 nM.

As to `CN(C)c1nc(N[C@H]2CC[C@@H](CNC(=O)OCc3ccccc3)CC2)nc2ccccc12` [compound 878], the IC50 was 50 to 200 nM.

As for `CN(C)c1nc(N[C@H]2CC[C@@H](NC(=O)Nc3cccc(SC(F)(F)F)c3)CC2)nc2ccccc12` [compound 119], the IC50 is more than 200 nM.

For `CCOC(=O)N[C@H]1CC[C@@H](Nc2nc(N(C)C)c3ccccc3n2)CC1` [compound 854], the IC50 was more than 200 nM.

Consider `CCOc1ccc(NC(=O)N[C@H]2CC[C@@H](Nc3nc(N(C)C)c4ccccc4n3)CC2)cc1` [compound 150, N-(cis-4-{[4-(dimethylamino)quinazolin-2-yl]amino}cyclohexyl)-N′-(4-ethoxyphenyl)urea], for which the IC50 fell in the range of 50 to 200 nM.

Staying with this assay, now noted: class by percent of control at 10^−7 M or by IC50; read-out: class.
With `COc1cccc(Oc2ncccc2C(=O)N[C@H]2CC[C@@H](Nc3nc(N(C)C)c4ccccc4n3)CC2)c1` [Example 1035, N-(cis-4-{[4-(dimethylamino)quinazolin-2-yl]amino}cyclohexyl)-2-(3-methoxyphenoxy)nicotinamide], the IC50 was less than 50 nM.

With `CN(C)c1nc(N[C@H]2CC[C@@H](C(=O)NCc3cc(Cl)cc(Cl)c3)CC2)nc2cc(F)c(F)cc12` [Example 1001, cis-N-(3,5-dichlorobenzyl)-4-{[4-(dimethylamino)-6,7-difluoroquinazolin-2-yl]amino}cyclohexanecarboxamide], the IC50 is less than 50 nM.

As to `CN(C)c1nc(N[C@H]2CC[C@@H](NCc3ccc(F)c(F)c3)C2)nc2ccccc12` [Example 1049, N2-{(1S,3R)-3-[(3,4-difluorobenzyl)amino]cyclopentyl}-N4,N4-dimethylquinazoline-2,4-diamine], the IC50 was more than 200 nM.

Regarding `CN(C)c1nc(N[C@H]2CC[C@@H](C(=O)NCc3cccc(-c4ccccc4)c3)CC2)nc2ccccc12` [Example 1148, cis-N-(biphenyl-3-ylmethyl)-4-{[4-(dimethylamino)quinazolin-2-yl]amino}cyclohexanecarboxamide], the IC50 is less than 50 nM.
